Laboratory results reported in the NIST ThermoML archive (doi:10.1016/j.fluid.2014.09.014).

Assay: refractive index (other wavelength) (dimensionless); xn = mol fraction of the nth substance listed
Conditions: 293.5 K, 101 kPa, Liquid, Standard Abbe refractometry

CC(C)OC(C)C [diisopropyl ether] + CC(C)O
refractive index
Conditions | Wavelength=404.7 nm | Wavelength=435.8 nm | Wavelength=486.1 nm | Wavelength=546.1 nm | Wavelength=587.6 nm | Wavelength=589.3 nm | Wavelength=632.8 nm
x1 = 0.0277 | 1.388 | 1.38493 | 1.38147 | 1.3786 | 1.37708 | 1.37703 | 1.37572
x1 = 0.0507 | 1.3879 | 1.38485 | 1.38137 | 1.3785 | 1.37699 | 1.37693 | 1.37562
x1 = 0.051 | 1.38799 | 1.38492 | 1.38146 | 1.37859 | 1.37708 | 1.37702 | 1.3757
x1 = 0.0717 | 1.38774 | 1.38468 | 1.38121 | 1.37834 | 1.37683 | 1.37678 | 1.37545
x1 = 0.1528 | 1.38719 | 1.38413 | 1.38066 | 1.37779 | 1.37629 | 1.37623 | 1.37492
x1 = 0.1553 | 1.38719 | 1.38413 | 1.38066 | 1.37779 | 1.37629 | 1.37623 | 1.37492
x1 = 0.1938 | 1.38688 | 1.38381 | 1.38034 | 1.37747 | 1.37597 | 1.37591 | 1.37461
x1 = 0.2029 | 1.38669 | 1.38364 | 1.38016 | 1.3773 | 1.3758 | 1.37574 | 1.37443
x1 = 0.245 | 1.3865 | 1.38325 | 1.37977 | 1.37692 | 1.37541 | 1.37536 | 1.37405
x1 = 0.297 | 1.38605 | 1.383 | 1.37951 | 1.37666 | 1.37514 | 1.37509 | 1.37378
x1 = 0.2973 | 1.38627 | 1.3832 | 1.37973 | 1.37687 | 1.37535 | 1.3753 | 1.374
x1 = 0.3068 | 1.38571 | 1.38264 | 1.37919 | 1.37631 | 1.37481 | 1.37475 | 1.37345
x1 = 0.398 | 1.38461 | 1.38154 | 1.37808 | 1.37522 | 1.37371 | 1.37366 | 1.37236
x1 = 0.4609 | 1.38404 | 1.38098 | 1.37753 | 1.37466 | 1.37315 | 1.3731 | 1.3718
x1 = 0.5434 | 1.38333 | 1.38026 | 1.37682 | 1.37395 | 1.37246 | 1.3724 | 1.37111
x1 = 0.6032 | 1.38277 | 1.37972 | 1.37624 | 1.3734 | 1.37188 | 1.37182 | 1.37052
x1 = 0.6371 | 1.3824 | 1.37934 | 1.37588 | 1.37304 | 1.37152 | 1.37146 | 1.37017
x1 = 0.701 | 1.38179 | 1.37873 | 1.37528 | 1.37243 | 1.37093 | 1.37087 | 1.36958
x1 = 0.754 | 1.38141 | 1.37834 | 1.3749 | 1.37205 | 1.37055 | 1.37049 | 1.3692
x1 = 0.791 | 1.38107 | 1.37802 | 1.37455 | 1.37172 | 1.37022 | 1.37016 | 1.36887
x1 = 0.8296 | 1.38071 | 1.37766 | 1.37423 | 1.37135 | 1.36987 | 1.36982 | 1.36854
x1 = 0.8864 | 1.38051 | 1.37747 | 1.374 | 1.37116 | 1.36966 | 1.36961 | –
x1 = 0.8903 | 1.38011 | 1.37706 | 1.37363 | 1.37076 | 1.36928 | 1.36922 | –
x1 = 0.9113 | 1.37989 | 1.37684 | 1.37339 | 1.37055 | 1.36905 | 1.369 | –
x1 = 0.9547 | 1.37948 | 1.37645 | 1.37301 | 1.37015 | 1.36866 | 1.36861 | –
x1 = 0.973 | 1.37918 | 1.37614 | 1.37271 | 1.36984 | 1.36836 | 1.3683 | –
x1 = 0.9771 | 1.37921 | 1.37617 | 1.37274 | 1.36988 | 1.36839 | 1.36834 | –
x1 = 1 | 1.37888 | 1.37585 | 1.37241 | 1.36955 | 1.36806 | 1.36801 | –
